Experimental data from patent publication US20230172944A1, “ROCK INHIBITORS FOR USE IN TREATING OR PREVENTING PULMONARY EDEMA” (ATRIVA THERAPEUTICS GMBH, priority 2020, published 2023).

Tests used:
[1] = test system: IAV A/Puerto Rico/8/32 (H1N1); assay: Virus titer of lung homogenizates (foci assay); assay type: in vivo, mice; conditions: 10 mg/kg 1×daily for 6 days, 500 PFU/mouse, 7th day p.i., n=3
Protocol: PR8: Virus titer of lung homogenizates from mice infected with IAV A/Puerto Rico/8/32 (H1N1, 500 PFU/Mouse) were infected (7th day p.i.).
For the foci forming assay, MDCK II cells were seeded in 96-well plates at a concentration of 3×10^6 cells/plate. The next day, 10-fold dilutions in duplicates (from 10^−1 to 10^−8) in PBS+/+/BA/PS was prepared from each virus sample in U-shaped 96-well. Importantly, during the preparation of the dilutions the pipet tips were changed after each dilution step. The MDCK II cells in the 96-well plate(s) were washed once with PBS+/+. […] 1 hour later, cells again were washed with 400 μl of washing buffer and 40 μl 3-Amino-9-ethylcarbazole (AEC)-staining buffer (1×AEC diluted N—N-dimethylformamide in acetate buffer (50 mM ammonium acetate, 8.8 mM H202) were added to each well. Following incubation for 30 min at 37° C. until foci could be detected, the staining buffer was removed and cells were washed twice with dH2O. Air-dried plates were scanned by using the Epson Perfection V500 Photo scan (Epson) at 1200 dpi and total number of foci was determined per well. Since Avicel-medium has a high viscosity that prevents diffusion of virus particles in surrounding media, virus can spread only from one cell to other forming foci. […]

[2] = test system: IAV A/Puerto Rico/8/32 (H1N1); assay: Lung histology (Hematoxilin/Eosin) and nuclear count quantification of infiltrates; assay type: in vivo; conditions: 10 mg/kg 1×daily for 6 days, 5 mice, 7th day p.i., Aperio nuclear count
[3] = test system: IAV A/Puerto Rico/8/32 (H1N1); assay: Body weight of infected mice; assay type: in vivo, C57BL/6 mice; conditions: 10 mg/kg 1×daily in saline solution, 500 PFU/mouse, 7 days
Protocol: PR8: Body weight of mice infected with IAV A/Puerto Rico/8/32 (H1N1, 500 PFU/mouse). […] The experiment was planned for 7 days only. Afterwards the mice were euthanized for ethical reasons.
All animal experiments were performed according to the latest guidelines of the “Federation of European Laboratory Animal Science Associations (FELASA)” and approved by the local committee of the Max-Planck Laboratory for Heart & Lung Research Instituto de Investigación en Biomedicina de Buenos Aires (IBioBA). Six-week-old BALB/c mice (n=5 per group) were infected by intra-tracheal inoculation of 500 plaque-forming units (pfu)/mouse of PR8 in a volume of 30 μl. […] As a control IP injection of sterile PBS −/− were applied. Body weight was monitored every day until day 8 p.i.. On the day 7 after treatment start (=day 8 p.i.) mice were sacrificed by an overdose of isoflurane.

[4] = test system: Calu3 cells infected with influenza virus A/Puerto Rico/8/34 (H1N1); assay: Antibody staining and confocal laser-scanning microscopy of apical NKA localization; assay type: cell-based, human; conditions: PR8-infected Calu3 cells treated with ROCK inhibitor, 20 h p.i.
Protocol: In order to obtain highly polarized Calu3 cells, the cell monolayer in a 175 cm^2 tissue culture flask grown to 50% confluence was washed once with PBS −/− and treated with Trypsin-EDTA. Cells were resuspended in 10 ml culture medium and centrifuged for 15 min at 300×g, 24° C. Supernatant was discarded and cells were resuspended in 5 ml of culture medium. 30 μl of cell suspension were mixed with 30 μl of 0.4% trypan blue dye and cell concentration was calculated in Neubauer chamber according manufacturer's instruction. Cells were dilute to a concentration of 2×10^6 viable cells/ml in Calu3 culture medium and 250 μl/125 μl of the cell suspension containing 0.5×10^6/0.25×10^6 viable cells were placed to the apical compartment of each Transwells® insert in a 12/24 well plate. 1/0.3 ml of Calu-3 culture medium was added into the basolateral compartments, avoiding the introduction of air bubbles and cells were cultivated at 37° C., 5% CO2. For the cells grown under the Liquid-Liquid Interface (LLI) condition, medium was replaced in both compartments each second day. For Air-Liquid Interface (ALI), culture medium was aspirated from the apical compartment on the day two, whereas medium was replaced every 2 days in the basolateral compartments.
For immunofluorescence assay cells were washed ones with PBS+/+ and fixed with or without extra permeabilization at the indicated time points. […]

[5] = test system: Calu3 cells infected with influenza virus A/Puerto Rico/8/34; assay: Coomassie staining of confluent polarized Calu3 cells (virus-induced epithelial cell damage); assay type: cell-based; conditions: 5 μM, MOI=5, Coomassie 24 h p.i.
[6] = test system: polarized Calu3 cells infected with influenza virus A/Puerto Rico/8/34 (H1N1); assay: Vectorial water transport (FITC-dextran) over polarized Calu3 cells; assay type: cell-based, human

SMILES	virus titer in the lungs of infected mice [1]	number of infiltrates (quantification, total cell count/mm2) [2]	body weight loss of infected mice [3]	apical sodium-potassium-ATPase (NKA) localization [4]	cell viability of infected Calu3 cells (Calu3 cells)	cell viability of non-infected Calu3 cells (Calu3 cells; 5 μM, 0, 6, 16, 24 hours, mock set to 100%)	virus-induced epithelial cell damage (cytopathic effect) [5]	vectorial water transport (VWT) [6]
Cl.O=S(=O)(c1cccc2cnccc12)N1CCCNCC1 [Fasudil HCl, Isoquinoline 5-[(hexahydro-1H-1,4-diazepin-1-yl)sulfonyl]-N-(5-Isoquinolinesulfonyl)-1,4-per-hydrodiazepine]	reduces the virus titer in the lungs of infected mice	reduces the number of infiltrates	tendential reduction of the body weight loss	–	–	–	–	–
O=C(NCc1cccc(O)c1)Nc1nc(-c2ccncc2)cs1 [Rho XIII, 1-(3-Hydroxybenzyl)-3-(4-(pyridin-4-yl)thiazol-2-yl)urea]	–	–	–	prevents apical sodium-potassium-ATPase (NKA) localization	increases cell viability	increases cell viability	reduces virus-induced epithelial cell damage in vitro	improves vectorial water transport
